Source: patent US20230009608A1, “GRK2 INHIBITORS AND USES THEREOF” (Cygnal Therapeutics, Inc., priority 2020, published 2023)
Like-named read-outs stand apart in the source and are kept apart here.

Key:
[1] = tested on: PAXF1657 control empty vector cell line; assay: 7-day proliferation assay, PAXF1657 control empty vector cell line (Example 9); format: cell-based; conditions: 168 h; Cell Line: PAXF1657 empty vector (EV) cell line; 7-day; read-out: C: 7-day proliferation assay: IC50 GeoMean
Experimental: In order to identify compounds specific for GRK2, we generated two isogenic cell line pairs of the pancreatic cancer cell line PAXF1657, a pair of cells stably overexpressing GRK2 cDNA or the control empty vector and a cell line pair of PAXF1657 GRK2 knockout clonal cells versus non-targeting control clonal cells.
Proliferation Assay: Cellular anti-proliferative activity of compounds was assessed by using the pancreatic cancer cell line, PAXF1657, stably overexpressing GRK2 cDNA or the control empty vector, as well as the parental urinary bladder cancer cell line, 5637. In addition, we also took advantage of GRK2 knockout cell lines that were generated via CRISPR. Cell lines were seeded into tissue culture treated, white-walled, 96-well plates at a density of 500 cells/well in RPMI1640 media supplemented with 10% H.I. FBS and penicillin/streptomycin. Plates were incubated overnight at 37° C., 5% CO2 to allow cells to adhere to the wells. GRK2 inhibitors were added to the cells using a 10-point dilution series with a final concentration ranging from 30 μM-0.0002 μM in 0.3% DMSO. At the time of compound addition, a set of plates, that were not treated with compounds, were collected and cell viability was measured using CellTiter-Glo (Promega). CellTiter-Glo reagent was added to the designed plates and luminescence was measuring using a Biotek Synergy plate reader. The compound treated cells were incubated for 3 days at 37° C., 5% CO2. The media was then aspirated from each well and replaced with fresh media containing GRK2 inhibitors. The compound treated cells were then incubated for an additional 4 days at 37° C., 5% CO2. Cell viability was assessed and at end of the 7-day compound treatment by CellTiterGlo.

[2] = target: T1, GRK2 (Homo sapiens, UniProt P25098); assay: ADPGlo GRK2 Inhibition Assay (Example 8); format: biochemical
T1 construct: purchased SignalChem A14-10G
T1 sequence (P25098 1-689): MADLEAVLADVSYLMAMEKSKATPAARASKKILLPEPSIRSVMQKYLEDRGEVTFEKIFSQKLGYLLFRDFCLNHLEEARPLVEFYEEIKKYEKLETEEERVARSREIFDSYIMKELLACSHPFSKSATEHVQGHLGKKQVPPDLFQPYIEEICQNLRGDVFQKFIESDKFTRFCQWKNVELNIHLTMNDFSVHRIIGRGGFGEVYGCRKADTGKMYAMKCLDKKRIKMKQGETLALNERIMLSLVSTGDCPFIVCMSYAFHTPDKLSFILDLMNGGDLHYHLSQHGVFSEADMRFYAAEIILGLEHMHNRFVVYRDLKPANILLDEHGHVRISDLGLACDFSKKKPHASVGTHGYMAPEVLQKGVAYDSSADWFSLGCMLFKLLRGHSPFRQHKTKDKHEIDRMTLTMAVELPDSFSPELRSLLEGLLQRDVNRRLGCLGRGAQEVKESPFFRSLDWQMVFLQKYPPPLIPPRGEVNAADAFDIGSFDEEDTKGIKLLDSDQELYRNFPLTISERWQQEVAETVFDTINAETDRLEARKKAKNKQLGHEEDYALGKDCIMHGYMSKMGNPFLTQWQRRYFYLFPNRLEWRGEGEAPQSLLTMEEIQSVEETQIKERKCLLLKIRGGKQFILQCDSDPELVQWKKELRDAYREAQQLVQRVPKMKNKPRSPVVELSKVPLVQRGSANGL
In short: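 GRK2 (15 nM 2× enzyme solution) was preincubated 15 min with compound, then reacted 180 min at room temperature with 2× mix of 20 μM ATP plus GRKtide in HEPES pH 7.5, MgCl2, Tween-20, DTT. ADP was detected by ADP-Glo luminescence. Percent inhibition was normalised to enzyme and no-enzyme controls, with dose-response curves from threefold dilutions starting at 100 μM.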

[3] = Enzyme Assay A, ADPGlo (Example 8), read-out: A: Enzymatic GRK2: IC50 (nM) (Example 8)
[4] = ADPGlo GRK2 enzyme assay, read-out: A: Enzymatic GRK2: IC50 (nM) (Example 8)
[5] = 7.5 nM GRK2, 10 μM ATP, ADP-Glo, read-out: GRK2 IC50 (nM) (Example 8)

SMILES	IC50 [2, 3]	IC50 [2, 4]	IC50 [2, 5]	IC50 [1]
Cn1c(CNc2cccc(C(=O)NCc3ccc(C(F)F)cc3)c2)nnc1-c1ccncn1		64.2 nM		> 13100 nM
COc1nc(C)ccc1CNC(=O)c1cccc(NCc2nnc(-c3ccncn3)n2C)c1		30.1 nM		> 30000 nM
COc1cccc([C@@H](C)NC(=O)c2ccnc(NCc3nnc(-c4ccncn4)n3C)c2)c1		9.89 nM		468 nM
[2H]C([2H])(Nc1cccc(C(=O)N[C@H]2CCOc3ccccc32)c1)c1nnc(-c2ccncn2)n1CCO		3.23 nM		94 nM
COc1ccc(CNC(=O)c2cccc(NCc3nnc(-c4ccncn4)n3C)c2)c(OC)n1		37.2 nM		797 nM
COc1ncc(Br)cc1CNC(=O)c1cccc(NCc2nnc(-c3ccncn3)n2C)c1		21.5 nM		610 nM
Cn1c(CNc2cccc(C(=O)N[C@H]3CCOc4c(Cl)cccc43)c2)nnc1-c1ccncc1	32.1 nM			> 30000 nM
COc1ccc2c(c1)[C@H](NC(=O)c1cccc(NCc3nnc(-c4ccncn4)n3C)c1)CCO2	15.2 nM			> 30000 nM
O=C(NCc1ccccc1-n1cncn1)c1cccc(NCc2nnc(-c3ccncc3)[nH]2)c1	19 nM			> 10000 nM
Cn1c(CNc2cccc(C(=O)NCc3cccc(OCC(F)F)c3)c2)nnc1-c1ccncn1	43 nM			> 10000 nM
Cn1c(CNc2cccc(C(=O)NCc3ccccc3N3CCOCC3)c2)nnc1-c1ccncn1		50 nM		3250 nM
Cn1ccc(CNC(=O)c2cccc(NCc3nnc(-c4ccncn4)n3C)c2)n1	60 nM			1290 nM
CC(NC(=O)c1cccc(NCc2nnc(-c3ccncc3)[nH]2)c1)c1cnco1 (stereo not shown)	24 nM			> 10000 nM
O=C(NCc1cncc(F)c1)c1cccc(NCc2nnc(-c3ccncc3)[nH]2)c1	17 nM			> 10000 nM
Cc1cc(C)n(C)c(=O)c1CNC(=O)c1cccc(NCc2nnc(-c3ccncn3)n2C)c1		9.97 nM		1700 nM
Cc1nc(C)c(CNC(=O)c2cccc(NCc3nnc(-c4ccncn4)n3C)c2)s1	26 nM			> 10000 nM
CCCCCOc1ccc2c(c1)[C@@H](NC(=O)c1cccc(NCc3nnc(-c4ccncn4)n3C)c1)CCO2		12.6 nM		2130 nM
Cn1c(CNc2cccc(C(=O)NCc3ccccc3-n3ccnc3)c2)nnc1-c1ccncn1		30 nM		1150 nM
Cn1c(CNc2cccc(C(=O)NCc3ccc(C(F)F)nc3)c2)nnc1-c1ccncn1		44.6 nM		> 4160 nM
Cn1c(CNc2cccc(C(=O)N[C@H]3CCOc4c(F)cccc43)c2)nnc1-c1ccncn1	11 nM			1230 nM

SMILES	IC50 [2, 3]	IC50 [2, 4]	IC50 [2, 5]	IC50 [1]
Cn1ccnc1C(NC(=O)c1cccc(NCc2nnc(-c3ccncn3)n2C)c1)C1CC1 (stereo not shown)		52.9 nM		3750 nM
O=C(N[C@@H]1COc2cc(F)ccc21)c1cccc(NCc2nnc(-c3ccncc3)[nH]2)c1	7.92 nM			607 nM
COc1ccccc1C(CO)NC(=O)c1cccc(NCc2nnc(-c3ccncn3)n2C)c1 (stereo not shown)		45.4 nM		> 13000 nM
C#Cc1cc(CNC(=O)c2cccc(NCc3nnc(-c4ccncc4)[nH]3)c2)cc(OS(=O)(=O)F)c1	34.9 nM			10800 nM
Cn1c(CNc2cccc(C(=O)NCc3ccccc3N3CCNCC3)c2)nnc1-c1ccncn1		65.8 nM		7890 nM
Cn1c(CNc2cccc(C(=O)NCc3ccccc3CN3CCOCC3)c2)nnc1-c1ccncn1		71.5 nM		6710 nM
O=C(N[C@H]1COCc2ccccc21)c1cccc(NCc2nnc(-c3ccncc3)n2CCO)c1	10.9 nM			41.6 nM
Cn1c(CNc2cccc(C(=O)NC3COc4cc(F)ccc43)c2)nnc1-c1ccncn1 (stereo not shown)		35.4 nM		547 nM
CN1CCC(NC(=O)c2cccc(NCc3nnc(-c4ccncn4)n3C)c2)c2ccccc21 (stereo not shown) [drawing 321]	37 nM			9340 nM
CC(C)n1cnnc1CNC(=O)c1cccc(NCc2nnc(-c3ccncc3)[nH]2)c1	210 nM			> 10000 nM
Cn1c(CNc2cccc(C(=O)NCc3cccc4c3CCOC4)c2)nnc1-c1ccncn1		8.5 nM		> 30000 nM
Cc1ocnc1CNC(=O)c1cccc(NCc2nnc(-c3ccncc3)[nH]2)c1	8.3 nM			> 7500 nM
CN1CCN(Cc2ccccc2CNC(=O)c2cccc(NCc3nnc(-c4ccncn4)n3C)c2)CC1		159 nM		
COc1ccccc1[C@H](NC(=O)c1cccc(NCc2nnc(-c3ccncn3)n2C)c1)c1noc(C)n1		741 nM		
Cn1c(CNc2cccc(C(=O)NC3(CO)CCCc4ccccc43)c2)nnc1-c1ccncn1 (stereo not shown)		651 nM		
CN(C)C[C@@H](NC(=O)c1cccc(NCc2nnc(-c3ccncn3)n2C)c1)c1ccccc1	210 nM			
Cc1cc2c(cc1CNC(=O)c1cccc(NCc3nnc(-c4ccncn4)n3C)c1)OCCO2 [compound 36]			0.5 nM	
Cc1ncsc1CNC(=O)c1cccc(NCc2nnc(-c3ccncn3)n2C)c1	16 nM			
COc1cccc2c1CC[C@H]2NC(=O)c1cccc(NCc2nnc(-c3ccncn3)n2C)c1 [compound 30]			15 nM	

More lines, main results first:

IC50 [2, 3]	IC50 [2, 4]	IC50 [2, 5]	SMILES	IC50 [1]
22.7 nM			Cn1c(CNc2cccc(C(=O)N[C@@H]3COc4cc(F)ccc43)c2)nnc1-c1ccncc1F	201 nM
33 nM			Cc1ccccc1C(CO)NC(=O)c1cccc(NCc2nnc(-c3ccncn3)n2C)c1 (stereo not shown)	8660 nM
	4.63 nM		Cc1ccccc1[C@H](C#N)NC(=O)c1cccc(NCc2nnc(-c3ccncn3)n2C)c1	30.4 nM
	48.2 nM		Cn1c(CNc2cccc(C(=O)NCc3ncccc3Cl)c2)nnc1-c1ccncn1	> 16400 nM
27 nM			COc1cccc(F)c1C(C)NC(=O)c1cccc(NCc2nnc(-c3ccncn3)n2C)c1 (stereo not shown)	> 10000 nM
70 nM			COc1ncccc1CNC(=O)c1cccc(NCc2nnc(-c3ccncn3)n2C)c1	> 10000 nM
69 nM			Cn1c(CNc2cccc(C(=O)NCc3ncccc3F)c2)nnc1-c1ccncn1	164 nM
21.9 nM			Cn1c(CNc2cccc(C(=O)N[C@H]3COCc4c(Cl)cccc43)c2)nnc1-c1ccncc1F	245 nM
24 nM			CC(NC(=O)c1cccc(NCc2nnc(-c3ccncn3)n2C)c1)c1nccn1C (stereo not shown)	591 nM
17 nM			Cn1c(CNc2cccc(C(=O)NCc3ncccc3C(F)(F)F)c2)nnc1-c1ccncn1	> 10000 nM
16 nM			CCn1ncc(Cl)c1CNC(=O)c1cccc(NCc2nnc(-c3ccncn3)n2C)c1	> 10000 nM
16 nM			COc1cccc(F)c1CNC(=O)c1cccc(NCc2nnc(-c3ccncn3)n2C)c1	149 nM
	54.7 nM		C[C@@H](NC(=O)c1cccc(NCc2nnc(-c3ccncc3F)n2C)c1)c1ncccc1Cl	135 nM
	7.61 nM		COc1cccc([C@@H](C)NC(=O)c2cccc(NCc3nnc(-c4ccncc4)n3C)c2)c1	> 30000 nM
200 nM			COc1ccnc(CNC(=O)c2cccc(NCc3nnc(-c4ccncn4)n3C)c2)c1F	> 10000 nM
	39 nM		Cn1c(CNc2cccc(C(=O)NCc3cnc4ccccn34)c2)nnc1-c1ccncc1F	> 30000 nM
		4.3 nM	Cn1c(CNc2cccc(C(=O)NCc3cnccc3Cl)c2)nnc1-c1ccncn1 [compound 47]	
		14 nM	Cc1cccnc1CNC(=O)c1cccc(NCc2nnc(-c3ccncn3)n2C)c1 [compound 11]	
	68 nM		CC(NC(=O)c1cccc(NCc2nnc(-c3ccncn3)n2C)c1)c1ccccc1NS(C)(=O)=O (stereo not shown)	
